Columns and labels:
pigweed [1] = assay: Test A postemergence; format: in vivo, Amaranthus retroflexus; details: 0 to 100 scale (0 no effect, 100 complete control), approx. 10 d
Summary of the method: (§1)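 Plant seeds in loam soil blended with sand, then apply test chemical preemergence as a directed soil spray; in parallel, spray potted seedlings (one- to two-leaf, 2 to 10 cm) postemergence. Both treatments use a non-phytotoxic solvent mixture with surfactant.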

morningglory [2] = assay: Test A preemergence; format: in vivo, Ipomoea spp.; details: 0 to 100 scale (0 no effect, 100 complete control)
Summary of the method: as §1

crabgrass, large [3] = assay: Test A preemergence; format: in vivo, Digitaria sanguinalis; details: 0 to 100 scale (0 no effect, 100 complete control)
Summary of the method: as §1

sedge, umbrella [4] = assay: Test C flooded paddy test; format: in vivo, Cyperus difformis; details: Flood, applied to paddy water, rating after 13 to 15 d
Excerpt: (§2) At time of treatment, test pots were flooded to 3 cm above the soil surface, treated by application of test compounds directly to the paddy water, and then maintained at that water depth for the duration of the test. Treated plants and controls were maintained in a greenhouse for 13 to 15 d, after which time all species were compared to controls and visually evaluated. […] A dash (-) response means no test result.

barnyardgrass [5] = assay: Test A postemergence; format: in vivo, Echinochloa crus-galli; details: 0 to 100 scale (0 no effect, 100 complete control), approx. 10 d
Summary of the method: as §1

crabgrass, large [6] = assay: Test A postemergence; format: in vivo, Digitaria sanguinalis; details: 0 to 100 scale (0 no effect, 100 complete control), approx. 10 d
Summary of the method: as §1

barnyardgrass [7] = assay: Test C flooded paddy test; format: in vivo, Echinochloa crus-galli; details: Flood, applied to paddy water, rating after 13 to 15 d
Excerpt: as §2

rice [8] = assay: Test C flooded paddy test; format: in vivo, Oryza sativa; details: Flood, applied to paddy water, rating after 13 to 15 d
Excerpt: as §2

wheat [9] = assay: Test A postemergence; format: in vivo, Triticum aestivum; details: 0 to 100 scale (0 no effect, 100 complete control), approx. 10 d
Summary of the method: as §1

velvetleaf [10] = assay: Test A postemergence; format: in vivo, Abutilon theophrasti; details: 0 to 100 scale (0 no effect, 100 complete control), approx. 10 d
Summary of the method: as §1

foxtail, giant [11] = assay: Test A preemergence; format: in vivo, Setaria faberii; details: 0 to 100 scale (0 no effect, 100 complete control)
Summary of the method: as §1

corn [12] = assay: Test A postemergence; format: in vivo, Zea mays; details: 0 to 100 scale (0 no effect, 100 complete control), approx. 10 d
Summary of the method: as §1

sedge, umbrella [13] = assay: Test B flooded paddy test; format: in vivo, Cyperus difformis; details: 250 g ai/ha, applied to paddy water at 2-leaf stage, visual rating after 13 to 15 d, scale 0 (no effect) to 100 (complete control)
Summary of the method: (§3)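 Pots were flooded to 3 cm above the soil at treatment, and compounds were applied directly into the paddy water. That depth was held throughout. After 13 to 15 d in a greenhouse, plants were rated visually against untreated controls.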

rice [14] = assay: Test B flooded paddy test; format: in vivo, Oryza sativa; details: 250 g ai/ha, applied to paddy water at 2-leaf stage, visual rating after 13 to 15 d, scale 0 (no effect) to 100 (complete control)
Summary of the method: as §3

velvetleaf [15] = assay: Test A preemergence; format: in vivo, Abutilon theophrasti; details: 0 to 100 scale (0 no effect, 100 complete control)
Summary of the method: as §1

morningglory [16] = assay: Test A postemergence; format: in vivo, Ipomoea spp.; details: 0 to 100 scale (0 no effect, 100 complete control), approx. 10 d
Summary of the method: as §1

barnyardgrass [17] = assay: Test B flooded paddy test; format: in vivo, Echinochloa crus-galli; details: 250 g ai/ha, applied to paddy water at 2-leaf stage, visual rating after 13 to 15 d, scale 0 (no effect) to 100 (complete control)
Summary of the method: as §3

barnyardgrass [18] = assay: Test A preemergence; format: in vivo, Echinochloa crus-galli; details: 0 to 100 scale (0 no effect, 100 complete control)
Summary of the method: as §1

corn [19] = assay: Test A preemergence; format: in vivo, Zea mays; details: 0 to 100 scale (0 no effect, 100 complete control)
Summary of the method: as §1

wheat [20] = assay: Test A preemergence; format: in vivo, Triticum aestivum; details: 0 to 100 scale (0 no effect, 100 complete control)
Summary of the method: as §1

pigweed [21] = assay: Test A preemergence; format: in vivo, Amaranthus retroflexus; details: 0 to 100 scale (0 no effect, 100 complete control)
Summary of the method: as §1

ducksalad [22] = assay: Test C flooded paddy test; format: in vivo, Heteranthera limosa; details: Flood, applied to paddy water, rating after 13 to 15 d
Excerpt: as §2

ducksalad [23] = assay: Test B flooded paddy test; format: in vivo, Heteranthera limosa; details: 250 g ai/ha, applied to paddy water at 2-leaf stage, visual rating after 13 to 15 d, scale 0 (no effect) to 100 (complete control)
Summary of the method: as §3

foxtail, giant [24] = assay: Test A postemergence; format: in vivo, Setaria faberii; details: 0 to 100 scale (0 no effect, 100 complete control), approx. 10 d
Summary of the method: as §1

CCCc1nc(-c2ccc(F)c(F)c2)nn1Cc1ccnc(C(F)(F)F)c1 [Compound 23]
Plant response rating, Pigweed (pigweed [1]; 125 g ai/ha): 100 | Plant response rating, Pigweed (pigweed [1]; 500 g ai/ha): 100 | Plant response rating, Morningglory (morningglory [2]; 125 g ai/ha): 50 | Plant response rating, Morningglory (morningglory [2]; 500 g ai/ha, approx. 10 d): 80 | Plant response rating, Crabgrass, Large (crabgrass, large [3]; 125 g ai/ha): 100 | Plant response rating, Crabgrass, Large (crabgrass, large [3]; 500 g ai/ha, approx. 10 d): 100 | Sedge, Umbrella plant response rating (0 to 100) (sedge, umbrella [4]; 31 g ai/ha): 80 | Sedge, Umbrella plant response rating (0 to 100) (sedge, umbrella [4]; 62 g ai/ha): 85 | Sedge, Umbrella plant response rating (0 to 100) (sedge, umbrella [4]; 125 g ai/ha): 90 | Sedge, Umbrella plant response rating (0 to 100) (sedge, umbrella [4]; 250 g ai/ha): 95 | Plant response rating, Barnyardgrass (barnyardgrass [5]; 125 g ai/ha): 50 | Plant response rating, Barnyardgrass (barnyardgrass [5]; 500 g ai/ha): 70 | Plant response rating, Crabgrass, Large (crabgrass, large [6]; 125 g ai/ha): 70 | Plant response rating, Crabgrass, Large (crabgrass, large [6]; 500 g ai/ha): 90 | Barnyardgrass plant response rating (0 to 100) (barnyardgrass [7]; 31 g ai/ha): 0 | Barnyardgrass plant response rating (0 to 100) (barnyardgrass [7]; 62 g ai/ha): 10 | Barnyardgrass plant response rating (0 to 100) (barnyardgrass [7]; 125 g ai/ha): 15 | Barnyardgrass plant response rating (0 to 100) (barnyardgrass [7]; 250 g ai/ha): 20 | Rice plant response rating (0 to 100) (rice [8]; 31 g ai/ha): 0 | Rice plant response rating (0 to 100) (rice [8]; 62 g ai/ha): 0 | Rice plant response rating (0 to 100) (rice [8]; 125 g ai/ha): 0 | Rice plant response rating (0 to 100) (rice [8]; 250 g ai/ha): 0 | Plant response rating, Wheat (wheat [9]; 125 g ai/ha): 30 | Plant response rating, Wheat (wheat [9]; 500 g ai/ha): 50 | Plant response rating, Velvetleaf (velvetleaf [10]; 125 g ai/ha): 70 | Plant response rating, Velvetleaf (velvetleaf [10]; 500 g ai/ha): 100 | Plant response rating, Foxtail, Giant (foxtail, giant [11]; 125 g ai/ha): 100 | Plant response rating, Foxtail, Giant (foxtail, giant [11]; 500 g ai/ha, approx. 10 d): 100 | Plant response rating, Corn (corn [12]; 125 g ai/ha): 30 | Plant response rating, Corn (corn [12]; 500 g ai/ha): 60 | Plant response rating, Sedge, Umbrella, Flood (sedge, umbrella [13]): 95 | Plant response rating, Rice, Flood (rice [14]): 25 | Plant response rating, Velvetleaf (velvetleaf [15]; 125 g ai/ha): 30 | Plant response rating, Velvetleaf (velvetleaf [15]; 500 g ai/ha, approx. 10 d): 80 | Plant response rating, Morningglory (morningglory [16]; 125 g ai/ha): 50 | Plant response rating, Morningglory (morningglory [16]; 500 g ai/ha): 90 | Plant response rating, Barnyardgrass, Flood (barnyardgrass [17]): 90 | Plant response rating, Barnyardgrass (barnyardgrass [18]; 125 g ai/ha): 50 | Plant response rating, Barnyardgrass (barnyardgrass [18]; 500 g ai/ha, approx. 10 d): 100 | Plant response rating, Corn (corn [19]; 125 g ai/ha): 20 | Plant response rating, Corn (corn [19]; 500 g ai/ha, approx. 10 d): 30 | Plant response rating, Wheat (wheat [20]; 125 g ai/ha): 20 | Plant response rating, Wheat (wheat [20]; 500 g ai/ha, approx. 10 d): 40 | Plant response rating, Pigweed (pigweed [21]; 125 g ai/ha): 100 | Plant response rating, Pigweed (pigweed [21]; 500 g ai/ha, approx. 10 d): 100 | Ducksalad plant response rating (0 to 100) (ducksalad [22]; 31 g ai/ha): 30 | Ducksalad plant response rating (0 to 100) (ducksalad [22]; 62 g ai/ha): 45 | Ducksalad plant response rating (0 to 100) (ducksalad [22]; 125 g ai/ha): 75 | Ducksalad plant response rating (0 to 100) (ducksalad [22]; 250 g ai/ha): 80 | Plant response rating, Ducksalad, Flood (ducksalad [23]): 90 | Plant response rating, Foxtail, Giant (foxtail, giant [24]; 125 g ai/ha): 70 | Plant response rating, Foxtail, Giant (foxtail, giant [24]; 500 g ai/ha): 90

From patent US10681909B2, “Herbicidal triazoles” (FMC Corporation, priority 2014, dated 2020)
